# Source: the RepoRT retention time repository
# Assay: HILIC, Waters ACQUITY UPLC BEH Amide, 100 × 2.1 mm, 1.7 µm; A: water + 0.125% formic acid + 10 mM ammonium formate; B: 5% water + 95% acetonitrile + 0.125% formic acid + 10 mM ammonium formate; gradient (min/%B) 0/100 2/100 7.7/70 9.5/40 10.25/30 12.75/100 17/100
# Conditions: stereoisomer not certain
row,SMILES,LC retention time [min]
1,CCC(C)n1ncn(-c2ccc(N3CCN(c4ccc(OCC5COC(Cn6cncn6)(c6ccc(Cl)cc6Cl)O5)cc4)CC3)cc2)c1=O (stereo unspecified) [Itraconzaole],0.97
2,CC(=O)N1CCN(c2ccc(OCC3COC(Cn4ccnc4)(c4ccc(Cl)cc4Cl)O3)cc2)CC1 (stereo unspecified) [Ketoconazole],1.73
3,CN1CCC(=C2c3ccccc3CC(=O)c3sccc32)CC1 [Ketotifen],2.71
4,COC1C(O)CC(=O)OC(C)CC=CC=CC(O)C(C)CC(CC=O)C1OC1OC(C)C(OC2CC(C)(O)C(OC(=O)CC(C)C)C(C)O2)C(N(C)C)C1O (stereo unspecified) [Kitasamycin],2.04
5,"CS(=O)(=O)Nc1ccc(Cc2noc(-c3ccc4[nH]cc(CCN)c4c3)n2)cc1 [L-694,247]",5.25
6,NC(CCC(=O)NC(CSSCC(N)C(=O)O)C(=O)NCC(=O)O)C(=O)O [L-Cysteine-glutathione disulfide],10.2
7,NC(=O)NCCCC[C@H](N)C(=O)O [L-Homocitrulline],8.73
8,CC(O)C(N)=O (stereo unspecified) [Lactamide],1.74
9,OCC(O)C(O)C(OC1OC(CO)C(O)C(O)C1O)C(O)CO (stereo unspecified) [Lactitol],8.99
10,Nc1ccn(C2CSC(CO)O2)c(=O)n1 (stereo unspecified) [Lamivudine],3.4
11,CCCCCCCCCCCC(=O)OC(CC(=O)[O-])C[N+](C)(C)C [Lauroyl-L-carnitine],3.63
12,N#Cc1ccc(C(c2ccc(C#N)cc2)n2cncn2)cc1 [Letrozol],0.98
13,CC(C)CC(N)C(=O)NC(CCCN=C(N)N)C(=O)O (stereo unspecified) [Leu-Arg],8.86
14,CC(C)CC(N)C(=O)O (stereo unspecified) [Leucine],7.08
15,c1ccc(C2CN3CCSC3=N2)cc1 (stereo unspecified) [Levamisole],2.95
16,CCC(C(N)=O)N1CCCC1=O (stereo unspecified) [Levetiracetam],1.45
17,O=C(O)COCCN1CCN(C(c2ccccc2)c2ccc(Cl)cc2)CC1 (stereo unspecified) [Levocetirizine],2.9
18,C#CC1(O)CCC2C3CCC4=CC(=O)CCC4C3CCC21CC (stereo unspecified) [Levonorgestrel],0.99
19,C=C(C)C1CC=C(C)CC1 (stereo unspecified) [Limonene],0.92
20,C=CC(C)(O)CCC=C(C)C (stereo unspecified) [Linalool],0.97

row,SMILES,LC retention time [min]
1,CC(=O)NCC1CN(c2ccc(N3CCOCC3)c(F)c2)C(=O)O1 (stereo unspecified) [Linezolide],1.15
2,CCCCCC=CCC=CCCCCCCCC(=O)OC(CC(=O)[O-])C[N+](C)(C)C (stereo unspecified) [Linoleoylcarnitine],3.1
3,O=C1N(c2ccccc2)c2ccccc2C1(Cc1ccncc1)Cc1ccncc1 [Linopirdine],1.17
4,NC(=O)CCCCC1CCSS1 (stereo unspecified) [Lipoamide],1.25
5,CN1C(CC(=O)c2ccccc2)CCCC1CC(O)c1ccccc1 (stereo unspecified) [Lobeline A],2.02
6,CN(CCCN1c2ccccc2CCc2ccccc21)CC(=O)c1ccc(Cl)cc1 [Lofepramine],1.91
7,COc1ccc(CN2CCN(C(c3ccc(F)cc3)c3ccc(F)cc3)CC2)c(OC)c1OC [Lomerizine],1.7
8,CC(=O)CCCCn1cnc2c1c(=O)n(C)c(=O)n2C [Lomifylline],1.09
9,O=C1Nc2ccc(Cl)cc2C(c2ccccc2Cl)=NC1O (stereo unspecified) [Lorazepam],1.33
10,CCCCc1nc(Cl)c(CO)n1Cc1ccc(-c2ccccc2-c2nn[nH]n2)cc1 [Losartan],1.27
11,O=c1[nH]c(=O)c2nccnc2[nH]1 [Lumazine],2.49
12,NCCCCC(N)C(=O)NCC(=O)O (stereo unspecified) [Lys-Gly],9.84
13,CC(C)C(NC(=O)C(N)CCCCN)C(=O)O (stereo unspecified) [Lys-Val],9.38
14,NCCCCC(N)C(=O)O (stereo unspecified) [Lysine],9.54
15,NC(=O)C=CC(=O)O [Maleamic acid],1.12
16,Cc1occc(=O)c1O [Maltol],1.32
17,OCC1OC(OC2C(CO)OC(O)C(O)C2O)C(O)C(O)C1O (stereo unspecified) [Maltose],8.75
18,CNCCCC12CCC(c3ccccc31)c1ccccc12 [Maprotiline],2.66
19,CC1(C)SC2C(N=CN3CCCCCC3)C(=O)N2C1C(=O)O (stereo unspecified) [Mecillinam],4.28
20,CC(=O)C1(O)CCC2C3CC(C)C4=CC(=O)CCC4(C)C3CCC21C (stereo unspecified) [Medroxyprogesterone],1.01

row,SMILES,LC retention time [min]
1,CC1CCN(CCCC(=O)c2ccc(F)cc2)CC1 [Melperone],2.12
2,CC12CC3CC(C)(C1)CC(N)(C3)C2 [Memantine],4.24
3,CCCC(C)(COC(N)=O)COC(N)=O [Meprobamate],1.25
4,CN1CCCCC1CCN1c2ccccc2Sc2ccc(S(C)=O)cc21 (stereo unspecified) [Mesoridazine],4.24
5,CN(C)C(=N)N=C(N)N [Metformin],5.44
6,CCC(=O)C(CC(C)N(C)C)(c1ccccc1)c1ccccc1 (stereo unspecified) [Methadone],2
7,CNC(C)Cc1ccccc1 (stereo unspecified) [Methamphetamine],3.33
8,Cc1ccccc1-n1c(C)nc2ccccc2c1=O [Methaqualone],1.1
9,CSCCC(N)C(=O)O (stereo unspecified) [Methionine],7.37
10,CS(=O)CCC(N)C(=O)O (stereo unspecified) [Methioninesulfoxide],8.62
11,C=CCC1(C(C)C#CCC)C(=O)NC(=O)N(C)C1=O (stereo unspecified) [Methohexital],6.9
12,COc1ccc(OC)c(C(O)C(C)N)c1 (stereo unspecified) [Methoxamine],4.75
13,CCC=CCC1C(=O)CCC1CC(=O)OC (stereo unspecified) [Methyl jasmonate],1.04
14,CC(O)C(C)C(=O)O (stereo unspecified) [Methyl-3-hydroxybutyric acid],6.22
15,COC(=O)CN [Methylglycinate],5.29
16,CC12CCC(=O)C=C1CCC1C2CCC2(C)C1CCC2(C)O (stereo unspecified) [Methyltestosterone],1.04
17,CCC1(CC)C(=O)NCC(C)C1=O (stereo unspecified) [Methyprylon],1.18
18,Cc1ncc([N+](=O)[O-])n1CCO [Metronidazole],1.17
19,CCC(C)C(=O)OC1CCC=C2C=CC(C)C(CCC3CC(O)CC(=O)O3)C21 (stereo unspecified) [Mevastatin],0.99
20,Cc1ncc2n1-c1ccc(Cl)cc1C(c1ccccc1F)=NC2 [Midazolam],1.29

# Other lines, results leading:
row,LC retention time [min],SMILES
1,4.49,COc1cc(-c2oc3cc(O)cc(O)c3c(=O)c2OC2OC(CO)C(O)C(O)C2O)ccc1O (stereo unspecified) [Isorhamnetin-3-glucoside]
2,5.36,CC(C)CC(=O)OC(CC(=O)[O-])C[N+](C)(C)C [Isovaleryl-L-carnitine]
3,6.41,Nc1nc2[nH]c(=O)cnc2c(=O)[nH]1 [Isoxanthopterin]
4,0.95,COC(=O)C1=C(C)NC(C)=C(C(=O)OC(C)C)C1c1cccc2nonc12 (stereo unspecified) [Isradipine]
5,3.65,COc1ccc(C(=O)NCc2ccc(OCCN(C)C)cc2)cc1OC [Itopride]
6,6.09,CC1OC(OCC2OC(Oc3c(-c4ccc(O)cc4)oc4cc(O)cc(O)c4c3=O)C(O)C(O)C2O)C(O)C(O)C1O (stereo unspecified) [Kaempferol-3-O-rutinoside]
7,1.4,O=c1c(O)c(-c2ccc(O)cc2)oc2cc(O)cc(O)c12 [Kaempferol]
8,2.84,CC(C)C(=O)C(=O)O [Ketoisovaleric acid]
9,6.15,O=C(O)c1cc(=O)c2ccccc2[nH]1 [Kynurenic acid]
10,6.98,Nc1ccccc1C(=O)CC(N)C(=O)O (stereo unspecified) [Kynurenine]
11,0.94,CCOC(=O)C1=C(C)NC(C)=C(C(=O)OCC)C1c1ccccc1C=CC(=O)OC(C)(C)C [Lacidipine]
12,1.98,Nc1nnc(-c2cccc(Cl)c2Cl)c(N)n1 [Lamotrigine]
13,1.06,CC(C)OC(=O)CCCC=CCC1C(O)CC(O)C1CCC(O)CCc1ccccc1 (stereo unspecified) [Latanoprost]
14,5,CC(C)CC(N)C(=O)NC(C)C(=O)O (stereo unspecified) [Leu-Ala]
15,7.32,CC(C)CC(N)C(=O)N1CCCC1C(=O)O (stereo unspecified) [Leu-Pro]
16,4.37,CCN1CCCC1CNC(=O)c1cc(S(N)(=O)=O)ccc1OC (stereo unspecified) [Levosulpiride]

row,LC retention time [min],SMILES
1,1.97,CCN(CC)CC(=O)Nc1c(C)cccc1C [Lidocaine]
2,1.3,O=C1CC(c2ccc(O)cc2)Oc2cc(O)ccc21 (stereo unspecified) [Liquiritigenin]
3,2.65,CC(Oc1c(Cl)cccc1Cl)C1=NCCN1 (stereo unspecified) [Lofexidine]
4,1.11,CCOC(=O)N1CCC(=C2c3ccc(Cl)cc3CCc3cccnc32)CC1 [Loratadine]
5,0.97,CCOC(=O)OC1(C(=O)OCCl)CCC2C3CCC4=CC(=O)C=CC4(C)C3C(O)CC21C (stereo unspecified) [Loteprednol Etabonate]
6,2.18,CN1CCN(C2=Nc3ccccc3Oc3ccc(Cl)cc32)CC1 [Loxapine]
7,1.09,CC(C(=O)O)c1ccc(CC2CCCC2=O)cc1 (stereo unspecified) [Loxoprofen]
8,0.96,CC(C)c1ccc2c(c1)c(SC(C)(C)C)c(CC(C)(C)C(=O)O)n2Cc1ccc(Cl)cc1 [MK-886]
9,0.96,CC(=O)OC1(C(C)=O)CCC2C3C=C(C)C4=CC(=O)CCC4(C)C3CCC21C (stereo unspecified) [Megestrol Acetate]
10,1.24,COc1ccc2[nH]cc(CCNC(C)=O)c2c1 [Melatonin]
11,1.03,COc1cc(C)nc(-n2nc(C)cc2OC)n1 [Mepirizole]
12,2.96,Cc1cccc(C)c1NC(=O)C1CCCCN1C (stereo unspecified) [Mepivacaine]
13,7.67,CN(Cc1cnc2nc(N)nc(N)c2n1)c1ccc(C(=O)NC(CCC(=O)O)C(=O)O)cc1 (stereo unspecified) [Methotrexate]
14,1.43,COC(=O)c1cc(O)c(O)c(O)c1 [Methylgallate]
15,4.23,CNC(Cc1ccc(O)cc1)C(=O)[O-] (stereo unspecified) [Methyltyrosinate]
